We go through 1 molecule from US7446102B2, “Antibacterial amide macrocycles IV” (priority 2004, dated 2008).

Structures can show the parent of a compound that is named as a salt. Where two headings read alike, the source gives them in different places.

The test system of one assay is S. aureus 133. The experiment in a line: Determination of the minimum inhibitory concentration (MIC), S. aureus 133. Type of assay: cell-based. As to conditions: Staphylococcus aureus, 133, read-out: MIC S. aureus 133. The procedure: (§1) Determination of the Minimum Inhibitory Concentration (MIC)
(§2) The minimum inhibitory concentration (MIC) is the minimum concentration of an antibiotic with which the growth of a test microbe is inhibited over 18-24 h. The inhibitor concentration can in these cases be determined by standard microbiological methods (see, for example, The National Committee for Clinical Laboratory Standards. Methods for dilution antimicrobial susceptibility tests for bacteria that grow aerobically; approved standard-fifth edition. NCCLS document M7-A5 [ISBN 1-56238-394-9]. NCCLS, 940 West Valley Road, Suite 1400, Wayne, Pa. 19087-1898 USA, 2000). The MIC of the compounds of the invention is determined in the liquid dilution test on the 96-well microtitre plate scale. The bacterial microbes are cultivated in a minimal medium (18.5 mM Na2HPO4, 5.7 mM KH2PO4, 9.3 mM NH4Cl, 2.8 mM MgSO4, 17.1 mM NaCl, 0.033 μg/ml thiamine hydrochloride, 1.2 μg/ml nicotinic acid, 0.003 μg/ml biotin, 1% glucose, 25 μg/ml of each proteinogenic amino acid with the exception of phenylalanine; [H.-P. Kroll; unpublished]) with the addition of 0.4% BH broth (test medium). In the case of Enterococcus facium L4001, heat-inactivated fetal calf serum (FCS; GibcoBRL, Germany) is added to the test medium in a final concentration of 10%. Overnight cultures of the test microbes are diluted to an OD578 of 0.001 (to 0.01 in the case of enterococci) in fresh test medium, and incubated 1:1 with dilutions of the test substances (1:2 dilution steps) in test medium (200 μl final volume). The cultures are incubated at 37° C. for 18-24 hours; enterococci in the presence of 5% CO2.
(§3) The lowest substance concentration in each case at which no visible bacterial growth occurred any more is defined as the MIC.
(§4) Alternative Method for Determining the Minimum Inhibitory Concentration (MIC)
(§5) The minimum inhibitory concentration (MIC) is the minimum concentration of an antibiotic with which the growth of a test microbe is inhibited over 18-24 h. The inhibitor concentration can in these cases be determined by standard microbiological methods with modified medium in an agar dilution test (see, for example, The National Committee for Clinical Laboratory Standards. Methods for dilution antimicrobial susceptibility tests for bacteria that grow aerobically; approved standard-fifth edition. NCCLS document M7-A5 [ISBN 1-56238-394-9]. NCCLS, 940 West Valley Road, Suite 1400, Wayne, Pa. 19087-1898 USA, 2000). The bacterial microbes are cultivated on 1.5% agar plates which contain 20% defibrinated horse blood. The test microbes, which are incubated overnight on Columbia blood agar plates (Becton-Dickinson), are diluted in PBS, adjusted to a microbe count of about […] and placed dropwise (1-3 μl) on test plates. The test substances comprise different dilutions of the test substances (1:2 dilution steps). The cultures are incubated at 37° C. in the presence of 5% CO2 for 18-24 hours.
(§6) The lowest substance concentration in each case at which no visible bacterial growth occurred any more is defined as the MIC and is reported in μg/ml.

In another assay the test system is S. aureus T17. The experiment in a line: Determination of the minimum inhibitory concentration (MIC), biphenomycin-resistant S. aureus T17. Type of assay: cell-based. As to conditions: Staphylococcus aureus. As for the experimental part: as §1, §2, §3, §4, §5, §6
The S. aureus strain T17 is isolated in vivo. CFW1 mice are infected intraperitoneally with 4×10^7 S. aureus 133 cells per mouse. 0.5 h after the infection, the animals are treated intravenously with 50 mg/kg biphenomycin B. The kidneys are removed from the surviving animals on day 3 after the infection. After homogenization of the organs, the homogenates are plated out as described for RN4220Bi^R on antibiotics-free and antibiotics-containing agar plates and incubated at 37° C. overnight. […] About 20 of these colonies are tested for the biphenomycin B MIC, and a colony with an MIC of >50 μM is selected for further cultivation, and the strain is referred to as T17.

What is called MIC is the least concentration at which growth counts as inhibited. As to `NC[C@H](O)C[C@@H]1NC(=O)[C@@H](N)Cc2cc(ccc2O)-c2ccc(O)c(c2)C[C@@H](C(=O)O)NC1=O` [Example 20A, 14(S)-Amino-11(S)-(3-amino-2(R)-hydroxypropyl)-5,17-dihydroxy-10,13-dioxo-9,12-diazatricyclo[14.3.1.1^2,6]henicosa-1(19),2,4,6(21),16(20),17-hexaene-8(S)-carboxylic acid dihydrochloride, reference compound], the minimum inhibitory concentration (MIC) was less than 0.03 µg/mL in the assay on S. aureus 133; greater than 32 µg/mL in the assay with S. aureus T17 (biphenomycin-resistant strain, no visible bacterial growth, 18-24 h, 37° C., read-out: MIC S. aureus T17); greater than 50 µM in the assay on S. aureus T17 (colony isolated from kidney of mice treated with 50 mg/kg biphenomycin B, read-out: MIC, selected colony (strain T17)).
